# Values of other authors as cited in publication PMC9181795, “Ibuprofen Favors Binding of Amyloid-β Peptide to Its Depot, Serum Albumin” (International Journal of Molecular Sciences, 2022).
# Like-named read-outs stand apart in the source and are kept apart here.
# How the values were obtained:
# [1] = design: method as in doi:10.3109/03639048309039887, PMID 10714613; details: pH values above 7; ref [22],[23]; cited from earlier work
# [2] = tested on: mouse models of AD; design: method as in 6 sources, ref [28]–[35] = [28]; PMID 15817521; doi:10.1093/brain/awh452; 28. Heneka M.T. Sastre M. Dumitrescu-Ozimek L. Hanke A. Dewachter I. Kuiperi C. O’Banion K. Klockgether T. Van Leuven F. Landreth G.E. Acute treatment with the PPARgamma agonist pioglitazone and ibupr || [29]; PMID 18374906; doi:10.1016/j.brainres.2008.01.095; 29. McKee A.C. Carreras I. Hossain L. Ryu H. Klein W.L. Oddo S. LaFerla F.M. Jenkins B.G. Kowall N.W. Dedeoglu A. Ibuprofen reduces Abeta, hyperphosphorylated tau and memory deficits in Alzheimer mice || [30]; PMID 19679126; doi:10.1016/j.expneurol.2009.07.032; 30. Choi J.K. Jenkins B.G. Carreras I. Kaymakcalan S. Cormier K. Kowall N.W. Dedeoglu A. Anti-inflammatory treatment in AD mice protects against neuronal pathology Exp. Neurol. 2010 223 377 384 10.101 || [31]; PMID 27190010; doi:10.1093/brain/aww117; 31. Woodling N.S. Colas D. Wang Q. Minhas P. Panchal M. Liang X. Mhatre S.D. Brown H. Ko N. Zagol-Ikapitte I. Cyclooxygenase inhibition targets neurons to prevent early behavioural decline in Alzheime || [32]; PMID 12930788; doi:10.1523/JNEUROSCI.23-20-07504.2003; 32. Yan Q. Zhang J. Liu H. Babu-Khan S. Vassar R. Biere A.L. Citron M. Landreth G. Anti-inflammatory drug therapy alters beta-amyloid processing and deposition in an animal model of Alzheimer’s diseas ||| ref [28],[29],[30],[32],[33],[34],[35] = [28]; PMID 15817521; doi:10.1093/brain/awh452; 28. Heneka M.T. Sastre M. Dumitrescu-Ozimek L. Hanke A. Dewachter I. Kuiperi C. O’Banion K. Klockgether T. Van Leuven F. Landreth G.E. Acute treatment with the PPARgamma agonist pioglitazone and ibupr || [29]; PMID 18374906; doi:10.1016/j.brainres.2008.01.095; 29. McKee A.C. Carreras I. Hossain L. Ryu H. Klein W.L. Oddo S. LaFerla F.M. Jenkins B.G. Kowall N.W. Dedeoglu A. Ibuprofen reduces Abeta, hyperphosphorylated tau and memory deficits in Alzheimer mice || [30]; PMID 19679126; doi:10.1016/j.expneurol.2009.07.032; 30. Choi J.K. Jenkins B.G. Carreras I. Kaymakcalan S. Cormier K. Kowall N.W. Dedeoglu A. Anti-inflammatory treatment in AD mice protects against neuronal pathology Exp. Neurol. 2010 223 377 384 10.101 || [32]; PMID 12930788; doi:10.1523/JNEUROSCI.23-20-07504.2003; 32. Yan Q. Zhang J. Liu H. Babu-Khan S. Vassar R. Biere A.L. Citron M. Landreth G. Anti-inflammatory drug therapy alters beta-amyloid processing and deposition in an animal model of Alzheimer’s diseas || [33]; PMID 10908610; doi:10.1523/JNEUROSCI.20-15-05709.2000; 33. Lim G.P. Yang F. Chu T. Chen P. Beech W. Teter B. Tran T. Ubeda O. Ashe K.H. Frautschy S.A. Ibuprofen suppresses plaque pathology and inflammation in a mouse model for Alzheimer’s disease J. Neuro ||| ref [28] = [28]; PMID 15817521; doi:10.1093/brain/awh452; 28. Heneka M.T. Sastre M. Dumitrescu-Ozimek L. Hanke A. Dewachter I. Kuiperi C. O’Banion K. Klockgether T. Van Leuven F. Landreth G.E. Acute treatment with the PPARgamma agonist pioglitazone and ibupr ||| ref [32] = [32]; PMID 12930788; doi:10.1523/JNEUROSCI.23-20-07504.2003; 32. Yan Q. Zhang J. Liu H. Babu-Khan S. Vassar R. Biere A.L. Citron M. Landreth G. Anti-inflammatory drug therapy alters beta-amyloid processing and deposition in an animal model of Alzheimer’s diseas ||| ref [33],[34] = [33]; PMID 10908610; doi:10.1523/JNEUROSCI.20-15-05709.2000; 33. Lim G.P. Yang F. Chu T. Chen P. Beech W. Teter B. Tran T. Ubeda O. Ashe K.H. Frautschy S.A. Ibuprofen suppresses plaque pathology and inflammation in a mouse model for Alzheimer’s disease J. Neuro || [34]; PMID 15688088; doi:10.1038/sj.npp.1300668; 34. Morihara T. Teter B. Yang F. Lim G.P. Boudinot S. Boudinot F.D. Frautschy S.A. Cole G.M. Ibuprofen suppresses interleukin-1beta induction of pro-amyloidogenic alpha1-antichymotrypsin to ameliorate ||| ...; details: cited from earlier work
compound,measurement,setting,value
"CC(C)Cc1ccc(C(C)C(=O)O)cc1 (stereo not shown) [IBU, 2-[4-(2-methylpropyl)phenyl]propanoic acid]",water solubility,[1],100 to 1000 mM
same,neuroprotective effects of IBU intake,"[2]; mouse models of AD, ref [28]–[35]","suppression of the inflammatory processes, reduction in the Aβ sprand tau protein depositions, and lowering of the cognitive and memory deficits"
same,mechanism ascribed to reduced Aβ deposition,[2]; ref [28],downregulation of β-secretase 1 and COX-2
same,mechanism ascribed to reduced Aβ deposition,[2]; ref [32],reduction in Aβ42 production
same,mechanism ascribed to reduced Aβ deposition,"[2]; ref [33],[34]",inhibition of interleukin-1β and its downstream target α1-antichymotrypsin
same,mechanism ascribed to reduced Aβ deposition,[2]; ref [35],attenuation of NADPH oxidase activation and reactive oxygen species production
same,brain deposition of Aβ upon treatment with IBU,"[2]; several mouse AD models, ref [28],[29],[30],[32],[33],[34],[35]",reduction in brain deposition of Aβ
